From EP2853565A1, “Glutamate receptor photomodulators” (Consejo Superior De Investigaciones Científicas, priority 2013, dated 2015)

Columns and labels:
[1] = target: T1, rat metabotropic glutamate receptor 5 (mGlu5) (Rattus norvegicus, UniProt P31424); assay: Single-cell calcium imaging (Fura-2) of quisqualate-evoked calcium oscillations, with photoisomerization by 390/490 nm light; type: cell-based
T1 construct: expressed in transfected cells; host or cells: HEK tsA201 cells
Procedure: Cell Culture and Transient Transfection: Human embryonic kidney (HEK) tsA201 cells were maintained at 37 °C and humidified atmosphere with 5% CO2; cells were grown in Dulbecco's Modified Eagle's Medium/Nutrient Mixture F-12 Ham (DMEM/F12, 1:1) medium, supplemented with 10% Fetal Bovine Serum (FBS) and antibiotics (1% Penicillin/Streptomycin). Once at confluence, culture flasks were washed twice with PBS and harvested with 300 µl Accutase. Expression of rat mGlu5a was induced by transient transfection of the cDNA-containing plasmid with X-tremeGENE 9 DNA Transfection Reagent. For transfection, cells were seeded at a concentration of 10^6 cells per well on 6-multiwell plates with a final volume of 2ml, and immediately transfected following manufacturer's instructions (100 µl mixture of 3:1 (µl:µg) of X-tremeGENE 9 DNA TR:mGlu5a plasmid in serum-free medium, 20 minutes incubation). About 24h after transfection, HEK tsA201 cells transiently overexpressing mGlu5a were seeded onto 15 mm glass coverslips pre-treated with Poly-L-Lysine to allow cell adhesion. Seeding concentration was maintained between 2/4·10^5 cells to get preconfluent cultures at the time of experiment. Transfected cells were used for single-cell calcium imaging experiments between 48 and 72 hours after transfection.
Single-cell Calcium Imaging: At the time of experiments, glass coverslips were mounted onto the recording chamber, and cells were loaded with the high affinity, ratiometric, intracellular calcium indicator Fura-2 AM; the dye was incubated during 30 minutes at 37°C and 5% CO2, at a final concentration of 10 µM in Ca^2+-free extracellular solution (ES, -Ca^2+). We used a ratiometric calcium sensor in order to avoid bleaching artefacts. Cells were then carefully rinsed with fresh ES, three to four times, before the recording chamber was placed on an inverted fully-motorised digital microscope (iMic 2000, Till Photonics, Gräfelfing, Germany). Images were acquired at room temperature with a UV Apochromat 40x oil objective lens (Olympus, Tokio, Japan). Fura-2 AM was excited consecutively for 10 ms at two different wavelengths (340 and 380 nm) as indicated by the manufacturer (Life Technologies, Paisley, UK) by using a Polychrome V light source (Till Photonics) and a 505 nm dichroic beamsplitter (Chroma Technology, Below Falls, VT, USA); emission at 510 nm was filtered by a D535/40nm emission filter (Chroma Technology) and finally collected by a cooled CCD camera (Interline Transfer IMAGO QE, Till Photonics). The fluorescence measurements (excitation + emission recording) were carried out every 2 seconds, and each measurement takes about 10-50 ms. The 340 and 380 nm images were stored by the TILLvisION imaging software (Till Photonics); the ratio of the emission when the sample was excited at 340 nm and the emission when it was excited at 380 nm was recorded and its mean value was calculated for each cell using the same software. Higher ratios correspond to higher intracellular calcium concentrations.
Agonists and allosteric modulators addition was obtained by carefully pipetting an initial 1:30 dilution of the compound directly into the accessory pool of the recording chamber, obtaining a final dilution of 1:1000 (total DMSO concentration was always lower than 1%). Activation of the agonist was induced in HEK tsA201 mGlu5a transfected cells with the glutamate analogue Quisqualic acid (3 µM). Only evoked, sustained intracellular calcium oscillations were taken into account as consistent cell responses to the application of the agonist; different responses (such as single-peak, peak-and-plateau, etc.), as well as spontaneously oscillating cells, were discarded as unsuitable for calculating the oscillatory frequency.
Solutions and Reagents: The extracellular solution (ES) used for single-cell calcium imaging contained: 140 mM NaCl, 5.4 mM KCI, 1 mM MgCl2, 10 mM HEPES, 10 mM glucose and 2 mM CaCl2 adjusted to pH 7.4 with NaOH. […]

rat mGlu5 receptor = target: T2, rat mGlu5 receptor (Rattus norvegicus, UniProt P31424); assay: IP1 accumulation (IP-One HTRF) in transiently transfected HEK293 cells; type: cell-based; conditions: IP1 production, HEK293 cells with rat mGlu5 and EAAC1, 30 min incubation, 100 nM Quisqualate
T2 construct: expressed in transfected cells; host or cells: HEK293 cells (EAAC1 glutamate transporter cotransfected)
Procedure: Pharmacological experiments on mGlu receptors were performed in HEK293 cells cultured in Dulbecco's modified Eagle's medium (GIBCO-BRL Life Technologies Inc., Cergy Pontoise, France) supplemented with 10% fetal calf serum (FCS, GIBCO-BRL Life Technologies., Cergy Pontoise, France). The compounds were tested on a rat mGlu5 receptor, which was transiently transfected in HEK293 cells by electroporation as described elsewhere [Neuropharmacology 1998, 37, 1043-1051]. Additionally, a plasmid encoding the high-affinity glutamate transporter EAAC1 was cotransfected to prevent the influence of the glutamate released by the cells in the medium. Receptor activity is monitored by measurement of IP1 production using the kit IP-One HTRF® Assay from Cisbio Bioassays (France). For IP1 accumulation measurements, cells were seeded after transfection in polyornithine-coated, black-walled 96-well Polystyrene Cell Culture Microplates (Greiner Bio-One SAS, France) and cultured for 24 h in glutamate/glutamine-free medium (GIBCO-BRL Life Technologies Inc., Cergy Pontoise, France) and antibiotics (penicillin and streptomycin, 100 UmL_1 final, GIBCO-BRL Life Technologies). Media was removed and cells were incubated for 30min in a solution containing the drugs at the tested concentrations. The IP-One stimulation buffer, provided with the kit IP-One (Cisbio Bioassays, France), contains lithium chloride (LiCl) at 50mM that inhibits the degradation of IP1 to Myo-inositol, which is then accumulated in the cell. HTRF reagents, monoclonal antibody specific to IP1 labelled with terbium cryptate and IP1 coupled with the dye d2, diluted in a Lysis buffer were added. After 1 hour of incubation, time resolved fluorescence at 620nm and 665nm was measured with RUBYstar (BMG Labtech, Germany). The specific signal, which results from the energy transfer between […], is proportional to the ratio between the fluorescence emitted at 620 nm and 665 nm, and consequently to the concentration of IP1 in the lysate. All points were determined in triplicate. The dose-response curves were fitted using GraphPad Prism software and the following equation: y= [(ymax-ymin)/(1+10^(LogIC50-x))]+ymin, in which IC50 is the concentration of the compound necessary to obtain the half-maximal effect. (10 µM ≤ IC50 < 50 µM +; 2 µM ≤ IC50 < 10 µM ++; 500 nM ≤ IC50 < 2 µM +++; 100 nM ≤ IC50<500 nM ++++; IC50< 100 nM +++++) Table 14.

[2] = 3 µM quisqualate, HEK tsA201 cells

T1 sequence (P31424 21-1171 isoform P31424-2 limits assumed): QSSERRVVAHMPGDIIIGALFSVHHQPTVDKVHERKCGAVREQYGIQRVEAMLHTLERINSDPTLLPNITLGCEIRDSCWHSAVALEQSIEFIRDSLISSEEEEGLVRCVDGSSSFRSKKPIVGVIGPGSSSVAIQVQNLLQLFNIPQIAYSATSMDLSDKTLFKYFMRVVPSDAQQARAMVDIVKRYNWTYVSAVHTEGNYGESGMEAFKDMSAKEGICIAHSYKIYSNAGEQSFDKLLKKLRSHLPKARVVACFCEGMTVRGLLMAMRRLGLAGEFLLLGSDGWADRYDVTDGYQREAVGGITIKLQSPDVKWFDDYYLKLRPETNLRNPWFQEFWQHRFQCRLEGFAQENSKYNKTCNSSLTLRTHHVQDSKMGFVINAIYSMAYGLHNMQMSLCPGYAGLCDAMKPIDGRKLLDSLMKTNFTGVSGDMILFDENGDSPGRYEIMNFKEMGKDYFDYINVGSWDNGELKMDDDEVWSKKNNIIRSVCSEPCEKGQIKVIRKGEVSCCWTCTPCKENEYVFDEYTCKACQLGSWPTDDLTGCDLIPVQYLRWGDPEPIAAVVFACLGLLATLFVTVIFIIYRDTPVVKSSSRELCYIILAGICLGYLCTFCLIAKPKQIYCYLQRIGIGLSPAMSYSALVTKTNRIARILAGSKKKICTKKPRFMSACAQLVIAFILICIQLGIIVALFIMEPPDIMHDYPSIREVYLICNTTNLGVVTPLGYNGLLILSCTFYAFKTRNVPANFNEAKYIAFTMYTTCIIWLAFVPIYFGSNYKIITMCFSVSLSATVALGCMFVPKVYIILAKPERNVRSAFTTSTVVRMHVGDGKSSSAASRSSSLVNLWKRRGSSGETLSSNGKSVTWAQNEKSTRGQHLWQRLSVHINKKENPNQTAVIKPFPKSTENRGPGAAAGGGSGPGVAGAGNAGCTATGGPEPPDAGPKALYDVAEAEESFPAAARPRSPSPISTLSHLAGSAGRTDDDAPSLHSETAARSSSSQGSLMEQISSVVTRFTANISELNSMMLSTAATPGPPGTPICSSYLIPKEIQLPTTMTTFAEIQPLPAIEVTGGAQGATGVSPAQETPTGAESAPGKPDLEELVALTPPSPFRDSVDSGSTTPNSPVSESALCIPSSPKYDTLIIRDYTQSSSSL
T2 sequence (P31424 21-1203): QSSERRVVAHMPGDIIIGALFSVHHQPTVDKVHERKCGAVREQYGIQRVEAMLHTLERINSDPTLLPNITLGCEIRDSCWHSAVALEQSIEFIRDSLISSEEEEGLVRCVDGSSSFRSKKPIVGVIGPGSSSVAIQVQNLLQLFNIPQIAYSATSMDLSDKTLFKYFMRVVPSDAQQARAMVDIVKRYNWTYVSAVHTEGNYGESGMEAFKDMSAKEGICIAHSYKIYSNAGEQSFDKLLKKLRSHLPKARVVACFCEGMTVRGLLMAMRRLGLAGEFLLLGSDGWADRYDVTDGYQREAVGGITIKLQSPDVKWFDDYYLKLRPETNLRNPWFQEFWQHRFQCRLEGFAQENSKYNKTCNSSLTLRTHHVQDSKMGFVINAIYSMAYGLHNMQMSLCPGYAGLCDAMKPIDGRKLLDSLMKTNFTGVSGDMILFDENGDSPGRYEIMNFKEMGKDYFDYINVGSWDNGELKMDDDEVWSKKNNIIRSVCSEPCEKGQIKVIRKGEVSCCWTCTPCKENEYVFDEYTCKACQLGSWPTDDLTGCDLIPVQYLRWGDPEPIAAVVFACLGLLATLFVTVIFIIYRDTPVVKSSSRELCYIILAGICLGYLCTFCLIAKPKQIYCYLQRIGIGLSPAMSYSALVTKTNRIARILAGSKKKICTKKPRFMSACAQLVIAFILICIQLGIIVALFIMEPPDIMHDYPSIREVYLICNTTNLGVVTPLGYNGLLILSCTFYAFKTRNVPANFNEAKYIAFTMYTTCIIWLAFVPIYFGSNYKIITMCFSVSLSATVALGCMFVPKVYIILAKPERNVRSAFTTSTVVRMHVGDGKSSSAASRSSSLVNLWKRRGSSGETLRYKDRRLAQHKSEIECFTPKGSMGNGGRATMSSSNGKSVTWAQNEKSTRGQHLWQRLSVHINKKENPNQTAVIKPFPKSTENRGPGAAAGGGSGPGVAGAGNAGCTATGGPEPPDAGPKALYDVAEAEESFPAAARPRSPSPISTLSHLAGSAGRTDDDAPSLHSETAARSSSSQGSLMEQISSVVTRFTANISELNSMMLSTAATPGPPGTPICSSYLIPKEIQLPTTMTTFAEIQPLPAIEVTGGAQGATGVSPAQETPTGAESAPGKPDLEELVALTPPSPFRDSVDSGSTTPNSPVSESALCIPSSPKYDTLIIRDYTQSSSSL

Compound	IC50 (rat mGlu5 receptor) [nM]	also measured
COc1cc(/C=C/c2ccccn2)ccc1NC(=O)c1ccccc1Cl [(E)-47, (E)-2-Chloro-N-(2-methoxy-4-(2-(pyridin-2-yl)vinyl)phenyl)benzamide, reference compound]		effect on mGlu5 response (calcium oscillations) [1, 2]: blocked the oscillatory responses of quisqualate
COc1cc(/N=N\c2ccccn2)ccc1NC(=O)c1ccccc1Cl [(Z)-1c, (Z)-2-chloro-N-(2-methoxy-4-(pyridin-2-yldiazenyl)phenyl)benzamide]		effect on mGlu5 response (calcium oscillations) [1, 2]: increases this response
COc1cc(/C=C\c2ccccn2)ccc1NC(=O)c1ccccc1Cl [(Z)-47, (Z)-2-Chloro-N-(2-methoxy-4-(2-(pyridin-2-yl)vinyl)phenyl)benzamide, reference compound]		effect on mGlu5 response (calcium oscillations) [1, 2]: inhibits mGlu5 activation
COc1cc(/N=N/c2ccccn2)ccc1NC(=O)c1ccc(C(=O)c2ccccc2)cc1 [Compound 1a, (E)-4-Benzoyl-N-(2-methoxy-4-(pyridin-2-yldiazenyl)phenyl)benzamide]	500 to 2000	
COc1cc(/N=N/c2ccccn2)ccc1NC(=O)c1ccc(Cl)cc1Cl [Compound 1b, (E)-2,4-Dichloro-N-(2-methoxy-4-(pyridin-2-yldiazenyl)phenyl)benzamide]	500 to 2000	
COc1cc(/N=N/c2ccccn2)ccc1NC(=O)c1cccnc1 [Compound 1e, (E)-N-(2-Methoxy-4-(pyridin-2-yldiazenyl)phenyl)nicotinamide]	100 to 500	
COc1cc(/N=N/c2ccccn2)ccc1NC(=O)c1ccncc1 [Compound 1f, (E)-N-(2-Methoxy-4-(pyridin-2-yldiazenyl)phenyl)isonicotinamide]	500 to 2000	
COc1cc(/N=N/c2ccccn2)ccc1N1C(=O)c2ccccc2C1=O [Compound 1j, (E)-2-(2-Methoxy-4-(pyridin-2-yldiazenyl)phenyl)isoindoline-1,3-dione]	2000 to 10000	
COc1cc(/N=N/c2ccccn2)ccc1N(C(=O)c1ccccc1)C(=O)c1ccccc1 [Compound 1k, (E)-N-Benzoyl-N-(2-methoxy-4-(pyridin-2-yldiazenyl)phenyl)benzamide]	500 to 2000	
COc1cc(/N=N/c2ccccn2)ccc1NC(=O)c1ccccc1 [Compound 1l, (E)-N-(2-Methoxy-4-(pyridin-2-yldiazenyl)phenyl)benzamide]	100 to 500	
COc1cc(/N=N/c2ccccn2)ccc1NC(=O)C(C)C [Compound 1m, (E)-N-(2-Methoxy-4-(pyridin-2-yldiazenyl)phenyl)isobutyramide]	< 100	
COc1cc(/N=N/c2ccccn2)ccc1NC(=O)C1CCCCC1 [Compound 1n, (E)-N-(2-Methoxy-4-(pyridin-2-yldiazenyl)phenyl)cyclohexanecarboxamide]	< 100	
COc1cc(/N=N/c2ccccn2)ccc1NC(=O)Nc1ccccc1F [Compound 1o, (E)-1-(2-Fluorophenyl)-3-(2-methoxy-4-(pyridin-2-yldiazenyl)phenyl)urea]	500 to 2000	
COc1cc(/N=N/c2ccccn2)ccc1NC(=O)c1ccccc1F [Compound 1p, (E)-2-Fluoro-N-(2-methoxy-4-(pyridin-2-yldiazenyl)phenyl)benzamide]	100 to 500	
O=C(Nc1ccccn1)c1ccc(/N=N/c2ccccn2)cc1 [Compound 1s, (E)-N-(Pyridin-2-yl)-4-(pyridin-2-yldiazenyl)benzamide]	10000 to 50000	

Now from value to compound, other results behind:

IC50 (rat mGlu5 receptor) [nM]	Compound	also measured
< 100	COc1cc(/N=N/c2ccccn2)ccc1NC(=O)c1ccccc1Cl [Compound 1c, (E)-2-Chloro-N-(2-methoxy-4-(pyridin-2-yldiazenyl)phenyl)benzamide]	oscillatory frequency at 390 nm ([1]; 100 nM compound, 390 nm illumination, compared with quisqualate alone): significantly higher than with quisqualate alone; oscillatory responses to 3 µM quisqualate ([1]; 100 nM compound, in the dark or under 490 nm light): completely blocked; effect on mGlu5 response (calcium oscillations) [1, 2]: inhibit mGlu5 response; light dependence of the activity on mGlu5 ([1]; 3 µM quisqualate, UV (380/390 nm) and visible (500/490 nm) light): could be reversibly switched on and off at 390 nm and 490 nm; IC50 ([1]; in the dark or under 490 nm light, 3 µM quisqualate, HEK tsA201 cells, read-out: IC50 (inhibitory profile on calcium oscillations)): 30 nM
100 to 500	COc1cc(/N=N/c2ccccn2)ccc1NC(=O)c1ccccn1 [Compound 1d, (E)-N-(2-Methoxy-4-(pyridin-2-yldiazenyl)phenyl)picolinamide]	
2000 to 10000	N#Cc1cc(/N=N/c2ccccn2)ccc1NC(=O)c1ccccn1 [Compound 1g, (E)-N-(2-Cyano-4-(pyridin-2-yldiazenyl)phenyl)picolinamide]	
2000 to 10000	O=C(Nc1ccc(/N=N/c2ccccn2)cc1)c1ccccn1 [Compound 1h, (E)-N-(4-(Pyridin-2-yldiazenyl)phenyl)picolinamide]	
10000 to 50000	COc1cc(NC(=O)c2ccccn2)ccc1/N=N/c1ccccn1 [Compound 1i, (E)-N-(3-Methoxy-4-(pyridin-2-yldiazenyl)phenyl)picolinamide]	
100 to 500	COc1cc(/N=N/c2ccccn2)ccc1NC(=O)c1cscn1 [Compound 1r, (E)-N-(2-Methoxy-4-(pyridin-2-yldiazenyl)phenyl)thiazole-4-carboxamide]	
10000 to 50000	O=C(Nc1cccc(/N=N/c2ccccn2)c1)c1ccccn1 [Compound 1t, (E)-N-(3-(pyridin-2-yldiazenyl)phenyl)picolinamide]	
